Assay results reported in ChEMBL document CHEMBL3886587, “Antagonists of prostaglandin EP3 receptor” (2016).
pKi: −log10 of the molar value.

Target: T1, Prostaglandin E2 receptor EP3 subtype (Homo sapiens, UniProt P43115)
T1 sequence (P43115 whole entry): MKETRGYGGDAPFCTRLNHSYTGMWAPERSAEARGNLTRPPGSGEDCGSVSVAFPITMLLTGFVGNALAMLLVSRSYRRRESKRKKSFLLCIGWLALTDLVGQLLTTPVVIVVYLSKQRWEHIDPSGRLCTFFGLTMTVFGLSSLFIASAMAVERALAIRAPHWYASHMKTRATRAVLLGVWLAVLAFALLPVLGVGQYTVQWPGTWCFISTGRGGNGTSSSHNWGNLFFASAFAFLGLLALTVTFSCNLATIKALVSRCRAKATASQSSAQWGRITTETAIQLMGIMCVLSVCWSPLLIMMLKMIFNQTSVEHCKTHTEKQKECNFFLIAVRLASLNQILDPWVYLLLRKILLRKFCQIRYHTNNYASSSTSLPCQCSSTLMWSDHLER
Assay: EP3 Radioligand SPA Binding Assay: Test compounds were half log serially diluted in 100% DMSO (J. T. Baker #922401). 1 uL of each compound was added to appropriate wells of a 384-well plate (Matrix Cat #4322). Unlabeled PGE2 (Tocris Cat #2296) at a final concentration of 1 uM was used to determine non-specific binding. 1 uL of 100% DMSO (J. T. Baker #922401) was used to determine total binding. Millipore EP3 Chem1 membranes (prepared in-house from cell paste derived from the Millipore ChemiSCREEN Human Recombinant EP3 Prostanoid Receptor Calcium-Optimized Stable Cell Line (Millipore Cat #HTS092C. http://www.millipore.com/catalogue/item/hts092c)) were thawed and diluted in binding buffer (50 mM Hepes pH 7.4 (Lonza Cat #17-737), 5 mM MgCl2 (Sigma-M1028), and 0.1% BSA (Sigma A-7409)) to a final concentration of 1 ug/25 uL. 25 uL of diluted membranes were added to prepared compound plates. WGA coated PVT SPA Beads (Perkin Elmer Cat #RPNQ0060) were diluted in binding buffer to a concentration of 4 ug/ul, and 25 uL of the SPA bead mixture was then added to each well for a final assay concentration of 100 ug/well. [3H]-PGE2 (Perkin Elmer Cat #NET428) was diluted in binding buffer to a concentration of […], and 25 uL was added to all wells for a final assay concentration of 1.125 nM. Plates were incubated for 30 minutes at r.t. (approximately 25° C.) with shaking. […]

Work on `Cn1ncc2c(F)cc(-c3ccc([C@@]4(C)CCCNC4=O)c(=O)[nH]3)cc21` yielded a pKi of 7.86.
